# Measured values reported in ChEMBL document CHEMBL4665787, “Bifunctional and Unusual Amino Acid β- or γ-Ester Prodrugs of Nucleoside Analogues for Improved Affinity to ATB and Enhanced Metabolic Stability: An Application to Floxuridine” (J Med Chem, 2020).
# T1: Sodium- and chloride-dependent neutral and basic amino acid transporter B(0+) (Homo sapiens, UniProt Q9UN76)
# T1 sequence (Q9UN76 whole entry): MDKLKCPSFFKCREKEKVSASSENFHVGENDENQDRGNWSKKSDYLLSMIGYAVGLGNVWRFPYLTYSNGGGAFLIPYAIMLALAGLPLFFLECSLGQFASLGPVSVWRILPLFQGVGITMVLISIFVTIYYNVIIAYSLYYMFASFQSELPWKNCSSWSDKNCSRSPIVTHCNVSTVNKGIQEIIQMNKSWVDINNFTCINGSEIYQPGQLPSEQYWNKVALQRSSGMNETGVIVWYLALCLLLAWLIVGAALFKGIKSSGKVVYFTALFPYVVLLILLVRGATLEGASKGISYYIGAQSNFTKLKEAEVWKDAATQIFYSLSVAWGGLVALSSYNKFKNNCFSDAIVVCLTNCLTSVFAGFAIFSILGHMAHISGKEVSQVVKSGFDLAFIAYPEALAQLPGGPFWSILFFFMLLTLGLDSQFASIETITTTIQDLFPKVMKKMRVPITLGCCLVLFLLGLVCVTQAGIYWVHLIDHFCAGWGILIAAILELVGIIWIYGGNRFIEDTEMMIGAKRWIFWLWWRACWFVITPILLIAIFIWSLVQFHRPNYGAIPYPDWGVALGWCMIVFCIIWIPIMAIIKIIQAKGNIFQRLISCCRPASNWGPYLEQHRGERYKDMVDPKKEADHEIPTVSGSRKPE
# T2: Solute carrier family 15 member 1 (Homo sapiens, UniProt P46059)
# T2 sequence (P46059 whole entry): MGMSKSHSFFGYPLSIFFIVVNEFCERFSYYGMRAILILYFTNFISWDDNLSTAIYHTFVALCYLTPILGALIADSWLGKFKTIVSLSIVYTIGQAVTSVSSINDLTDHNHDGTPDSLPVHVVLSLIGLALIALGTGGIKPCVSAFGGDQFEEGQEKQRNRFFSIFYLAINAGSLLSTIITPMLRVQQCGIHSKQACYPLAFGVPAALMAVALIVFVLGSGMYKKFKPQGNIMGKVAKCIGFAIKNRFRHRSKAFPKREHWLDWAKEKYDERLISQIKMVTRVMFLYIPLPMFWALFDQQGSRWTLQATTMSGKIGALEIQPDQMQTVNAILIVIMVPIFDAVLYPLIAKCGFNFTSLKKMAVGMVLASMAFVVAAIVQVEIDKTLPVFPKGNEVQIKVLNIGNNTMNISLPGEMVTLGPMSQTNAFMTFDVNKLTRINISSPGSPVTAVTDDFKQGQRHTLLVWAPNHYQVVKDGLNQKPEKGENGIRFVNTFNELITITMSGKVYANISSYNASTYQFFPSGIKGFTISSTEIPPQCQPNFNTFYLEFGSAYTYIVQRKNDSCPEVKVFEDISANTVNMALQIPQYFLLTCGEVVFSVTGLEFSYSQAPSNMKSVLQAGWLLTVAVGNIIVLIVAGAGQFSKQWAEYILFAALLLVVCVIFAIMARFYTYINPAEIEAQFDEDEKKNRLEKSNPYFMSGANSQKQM
# Legend:
# [1] = Toxicity in NOD SCID nude mouse xenografted with human MDA-MB-231 cells assessed as body weight at 90 mg/kg, iv for 20 days (reference value: 30.1 +/- 4.1g); type: organism-based; conditions: in vivo, 480 h, time 20 day
# [2] = biological target: T1, Sodium- and chloride-dependent neutral and basic amino acid transporter B(0+); experiment: Substrate activity at SLC6A14 (unknown origin) expressed in Xenopus laevis oocytes assessed as ABT0+ mediated drug uptake at 0.5 mM incubated for 10 mins by HPLC analysis; type: ADME, cell-based; conditions: oocyte, 500 µM
# [3] = Drug uptake in Xenopus laevis oocytes at 0.5 mM incubated for 10 mins by HPLC analysis; type: ADME, cell-based; conditions: oocyte, 500 µM
# [4] = biological target: T2, Solute carrier family 15 member 1; experiment: Substrate activity at PEPT1 (unknown origin) expressed in MDCK cells assessed as inhibition of gly-sar uptake incubated for 10 mins by HPLC/MS/MS analysis; type: cell-based
# [5] = biological target: T2, Solute carrier family 15 member 1; experiment: Substrate activity at PEPT1 (unknown origin) expressed in MDCK cells assessed as PEPT1 mediated drug uptake at 0.5 mM incubated for 10 mins by HPLC analysis; type: ADME, cell-based; conditions: 500 µM
# [6] = Drug uptake in MDCK cells incubated for 10 mins by HPLC analysis; type: ADME, cell-based, Canis lupus familiaris; conditions: dog, 500 µM, dose 0.5 mM
# [7] = Selectivity ratio of substrate activity at SLC6A14 (unknown origin) expressed in Xenopus laevis oocytes assessed as ABT0+ mediated drug uptake to drug uptake in Xenopus laevis oocytes; set-up: species or system Oocyte
# [8] = Selectivity ratio of substrate activity at PEPT1 (unknown origin) expressed in MDCK cells assessed as PEPT1 mediated drug uptake to drug uptake in MDCK cells
# thymidine phosphorylase = experiment: Half life of compound in thymidine phosphorylase buffer at 300 uM by HPLC analysis; type: physicochemical
# [9] = Half life of compound in human ZR-75-1 cell homogenate; type: ADME, tissue-based
# [10] = Half life of compound in human MIA PaCa-2 cell homogenate; type: ADME, tissue-based
# [11] = Half life of compound in human MDA-MB-231 cell homogenate; type: ADME, tissue-based
# [12] = Toxicity in NOD SCID nude mouse xenografted with human ZR-75-1 cells assessed as body weight at 90 mg/kg, iv for 20 days (reference value: 29.2 +/- 2.5g); type: organism-based; conditions: in vivo, 480 h, time 20 day
# [13] = Toxicity in NOD SCID nude mouse xenografted with human MIA PaCa-2 cells assessed as body weight at 90 mg/kg, iv for 20 days (reference value: 28.4 +/- 2.1g); type: organism-based; conditions: in vivo, 480 h, time 20 day
# ZR-75-1 = experiment: Antitumour activity against human ZR-75-1 cells xenografted in NOD SCID nude mouse assessed as tumour inhibition at 90 mg/kg, iv administered for 20 days measured every 2 day by caliper method relative to control; type: functional; conditions: ZR-75-1, iv, 480 h, time 20 day
# MIA PaCa-2 = experiment: Antitumour activity against human MIA-PaCa-2 cells xenografted in NOD SCID nude mouse assessed as tumour inhibition at 90 mg/kg, iv administered for 20 days measured every 2 day by caliper method relative to control; type: functional; conditions: MIA PaCa-2, iv, 480 h, time 20 day
# MDA-MB-231 = experiment: Antitumour activity against human MDA-MB-231 cells xenografted in NOD SCID nude mouse assessed as tumour inhibition at 90 mg/kg, iv administered for 20 days measured every 2 day by caliper method relative to control; type: functional; conditions: MDA-MB-231, iv, 480 h, time 20 day
# [14] = Cmax in NOD SCID nude mouse plasma xenografted with ZR-75-1 cells assessed as fluorouracil at 90 mg/kg, iv measured up to 24 hrs by HPLC-MS/MS analysis; type: ADME, organism-based; set-up: route intravenous, dose 90 mg/kg, time <=24; conditions: in vivo
# [15] = AUC (0 to t) in NOD SCID nude mouse plasma xenografted with ZR-75-1 cells assessed as fluorouracil AUC at 90 mg/kg, iv measured up to 24 hrs by HPLC-MS/MS analysis; type: ADME, organism-based; set-up: route intravenous, dose 90 mg/kg, time <=24; conditions: in vivo
# [16] = Cmax in NOD SCID nude mouse tumour xenografted with ZR-75-1 cells assessed as floxuridine; 5-fluoro-2-deoxyuridine concentration at 90 mg/kg, iv measured up to 24 hrs by HPLC-MS/MS analysis; type: ADME, organism-based, Neoplasm; set-up: route intravenous, dose 90 mg/kg, time <=24; conditions: in vivo
# [17] = AUC (0 to t) in NOD SCID nude mouse plasma xenografted with ZR-75-1 cells at 90 mg/kg, iv measured up to 24 hrs by HPLC-MS/MS analysis; type: ADME, organism-based; set-up: route intravenous, dose 90 mg/kg, time <=24
# [18] = AUC (0 to t) in NOD SCID nude mouse tumour xenografted with ZR-75-1 cells assessed as floxuridine; 5-fluoro-2-deoxyuridine AUC at 90 mg/kg, iv measured up to 24 hrs by HPLC-MS/MS analysis; type: ADME, organism-based, Neoplasm; conditions: in vivo
# [19] = Ratio of AUC (0 to t) in NOD SCID nude mouse plasma xenografted with ZR-75-1 cells to AUC (0 to t) in NOD SCID mouse tumour xenografted with ZR-75-1 cells; type: ADME, cell-free, Tumor/Plasma
# [20] = compound: CC(C)[C@H](N)C(=O)OC[C@H]1O[C@@H](n2cc(F)c(=O)[nH]c2=O)C[C@@H]1O; experiment: (§1) Substrate activity at SLC6A14 (unknown origin) expressed in Xenopus laevis oocytes assessed as Km by measuring ABT0+ mediated drug uptake incubated for 10 mins in presence of glycine by HPLC based Michaelis-Menten analysis; type: cell-based; conditions: Homo sapiens, Oocyte
# [21] = compound: N[C@@H](CC(=O)OC[C@H]1O[C@@H](n2cc(F)c(=O)[nH]c2=O)C[C@@H]1O)C(=O)O; experiment: as §1; type: cell-based; conditions: Homo sapiens, Oocyte
# [22] = compound: N[C@@H](CCC(=O)OC[C@H]1O[C@@H](n2cc(F)c(=O)[nH]c2=O)C[C@@H]1O)C(=O)O; experiment: as §1; type: cell-based; conditions: Homo sapiens, Oocyte
# [23] = compound: CC(C)[C@H](N)C(=O)OC[C@H]1O[C@@H](n2cc(F)c(=O)[nH]c2=O)C[C@@H]1O; experiment: (§2) Substrate activity at SLC6A14 (unknown origin) expressed in Xenopus laevis oocytes assessed as Vmax by measuring ABT0+ mediated drug uptake incubated for 10 mins in presence of glycine by HPLC based Michaelis-Menten analysis; type: cell-based; conditions: Homo sapiens, Oocyte
# [24] = compound: N[C@@H](CC(=O)OC[C@H]1O[C@@H](n2cc(F)c(=O)[nH]c2=O)C[C@@H]1O)C(=O)O; experiment: as §2; type: cell-based; conditions: Homo sapiens, Oocyte
# [25] = compound: N[C@@H](CCC(=O)OC[C@H]1O[C@@H](n2cc(F)c(=O)[nH]c2=O)C[C@@H]1O)C(=O)O; experiment: as §2; type: cell-based; conditions: Homo sapiens, Oocyte
molecule,measurement,setting,value
O=c1[nH]c(=O)n([C@H]2C[C@H](O)[C@@H](CO)O2)cc1F [FLOXURIDINE],Activity,[1],28.4 g
same,Drug uptake,[2],< 0.04 nmol/mg/min
same,Drug uptake,[3],< 0.04 nmol/mg/min
same,IC50,[4],12.2 mM
same,Drug uptake,[5],< 0.04 nmol/mg/min
same,Drug uptake,[6],< 0.04 nmol/mg/min
same,Ratio,[7],1
same,Ratio,[8],1
same,half-life at 300 µM,thymidine phosphorylase,10.2 min
same,half-life,[9],13.2 min
same,half-life,[10],15.6 min
same,half-life,[11],23.1 min
same,Activity,[12],25.8 g
same,Activity,[13],24.7 g
same,inhibition in vivo at 90 mg/kg,ZR-75-1,36.1%
same,inhibition in vivo at 90 mg/kg,MIA PaCa-2,41.3%
same,inhibition in vivo at 90 mg/kg,MDA-MB-231,36.9%
same,Cmax,[14],434.1 ng/mL
same,AUCt,[15],4107.2 ng·h/mL
same,Cmax,[16],374.4 ng/g
same,AUC(0-t) at 24 h,[17],3420 ng·h/mL
same,AUCt,[18],1877.1 ng·h/g
same,Ratio,[19],0.5
"Sodium- and chloride-dependent neutral and basic amino acid transporter B(0+) (Homo sapiens), Q9UN76 (protein) MDKLKCPSFFKCREKEKVSASSENFHVGENDENQDRGNWSKKSDYLLSMIGYAVGLGNVWRFPYLTYSNGGGAFLIPYAIMLALAGLPLFFLECSLGQFASLGPVSVWRILPLFQGVGITMVLISIFVTIYYNVIIAYSLYYMFASFQSELPWKNCSSWSDKNCSRSPIVTHCNVSTVNKGIQEIIQMNKSWVDINNFTCINGSEIYQPGQLPSEQYWNKVALQRSSGMNETGVIVWYLALCLLLAWLIVGAALFKGIKSSGKVVYFTALFPYVVLLILLVRGATLEGASKGISYYIGAQSNFTKLKEAEVWKDAATQIFYSLSVAWGGLVALSSYNKFKNNCFSDAIVVCLTNCLTSVFAGFAIFSILGHMAHISGKEVSQVVKSGFDLAFIAYPEALAQLPGGPFWSILFFFMLLTLGLDSQFASIETITTTIQDLFPKVMKKMRVPITLGCCLVLFLLGLVCVTQAGIYWVHLIDHFCAGWGILIAAILELVGIIWIYGGNRFIEDTEMMIGAKRWIFWLWWRACWFVITPILLIAIFIWSLVQFHRPNYGAIPYPDWGVALGWCMIVFCIIWIPIMAIIKIIQAKGNIFQRLISCCRPASNWGPYLEQHRGERYKDMVDPKKEADHEIPTVSGSRKPE",Km,[20],54.6 µM
same,Km,[21],35.6 µM
same,Km,[22],84 µM
same,Vmax,[23],278 pmol/mg/min
same,Vmax,[24],201 pmol/mg/min
same,Vmax,[25],235 pmol/mg/min
